Data on 21 compounds can be found in ChEMBL document CHEMBL5608234, “Heat Shock Protein 90 Interactome-Mediated Proteolysis Targeting Chimera (HIM-PROTAC) Degrading Glutathione Peroxidase 4 to Trigger Ferroptosis” (J Med Chem, 2024).

Active and inactive are the calls of the source. The rule behind the calls is not given here.

Data set [1] deals with HT-1080. The experiment in a line: Cytotoxicity against human HT-1080 cells incubated for 48 hrs by CCK-8 assay. The class given is functional, cell-based. The note with it: HT-1080, 48 h.
Data set [2] concerns HT-1080. Put plainly: HIM-PROTAC activity at GPX4/HSP90/E3 ligase in human HT-1080 cells assessed as reduction in GPX4 level at 0.1 to 3 uM incubated for 24 hrs by Western blotting analysis. The note with it: dose 0.1-3 µM. It counts as cell-based.
Data set [3] deals with HT-1080. Put plainly: HIM-PROTAC activity at GPX4/HSP90/E3 ligase in human HT-1080 cells assessed as reduction in GPX4 level at 0.3 uM incubated for 24 hrs by Western blotting analysis relative to control. The class given is cell-based. Also on record: scale not given: the % may be the effect or the level left.
Data set [4] has as its system HT-1080. Put plainly: HIM-PROTAC activity at GPX4/HSP90/E3 ligase in human HT-1080 cells assessed as reduction in GPX4 level at 1 uM incubated for 24 hrs by Western blotting analysis. The class given is cell-based.
A short description of data set [5]: Toxicity in BALB/c mouse xenografted with human HT-1080 cells assessed as animal death at 25 mg/kg, ip administered once daily measured after 10 days in presence of 2-chloro-N-(3-chloro-4-methoxyphenyl)-N-(2-oxo-2-(phenethylamino)-1-(thiophen-2-yl)ethyl)acetamide. The note with it: in vivo, 240 h, time 10 day. The class given is organism-based.
The test system of data set [6] is HT-1080. The experiment in a line: HIM-PROTAC activity at GPX4/HSP90/E3 ligase in human HT-1080 cells assessed as reduction in GPX4 level at 1 uM incubated for 24 hrs in presence of 2-chloro-N-(3-chloro-4-methoxyphenyl)-N-(2-oxo-2-(phenethylamino)-1-(thiophen-2-yl)ethyl)acetamide by Western blotting analysis. It counts as cell-based.
Data set [7] deals with HT-1080. Put plainly: Induction of ferroptosis in human HT-1080 cells assessed as fold increase in cytotoxic IC50 incubated for 48 hrs in presence of Fer-1 by CCK-8 assay. The class given is functional.
Data set [8] can be described thus: Toxicity in BALB/c mouse xenografted with human HT-1080 cells assessed as animal death at 25 mg/kg, ip administered once daily measured after 10 days in presence of 6-chloro-9-((4-methoxy-3,5-dimethylpyridin-2-yl)methyl)-9H-purin-2-amine. As to conditions: in vivo, 240 h, time 10 day. It counts as organism-based.
Data set [9] has as its system HT-1080. The experiment in a line: HIM-PROTAC activity at GPX4/HSP90/E3 ligase in human HT-1080 cells assessed as reduction in GPX4 level at 1 uM incubated for 24 hrs in presence of 6-chloro-9-((4-methoxy-3,5-dimethylpyridin-2-yl)methyl)-9H-purin-2-amine by Western blotting analysis. The class given is cell-based.
For data set [10], the system named is HT-1080. Put plainly: Cytotoxicity against human HT-1080 cells incubated for 48 hrs in presence of Fer-1 by CCK-8 assay. It counts as functional, cell-based. As to conditions: HT-1080, 48 h.

As to `COc1c(C)cnc(Cn2cnc3c(NCCOCCOCCNC(=O)Cn4cc(COc5ccc(N(C(=O)CCl)C(C(=O)NCCc6ccccc6)c6cccs6)cc5Cl)nn4)nc(N)nc32)c1C` (centres undefined), in data set [1], inhibition was half-maximal at 2600 nM (IC50). Further, the outcome in [2] was Active.

Turning to `COc1c(C)cnc(Cn2cnc3c(NCCOCCOCCOCCOCCOCCn4cc(COc5ccc(N(C(=O)CCl)C(C(=O)NCCc6ccccc6)c6cccs6)cc5Cl)nn4)nc(N)nc32)c1C` (centres undefined), the IC50 in data set [1] was 3500 nM. Besides, the result in data set [2] was Active.

Turning to `Nc1ncnc2c1nc(Sc1cc3c(cc1I)OCO3)n2CCCCCNC(=O)Cn1cc(COc2ccc(N(C(=O)CCl)C(C(=O)NCCc3ccccc3)c3cccs3)cc2Cl)nn1` (centres undefined), the Activity in data set [3] is under 50%. Also, in [1], the IC50 is 1300 nM. In addition, the outcome in data set [2] was Active.

The compound `COc1c(C)cnc(Cn2cnc3c(NCCOCCNC(=O)Cn4cc(COc5ccc(N(C(=O)CCl)C(C(=O)NCCc6ccccc6)c6cccs6)cc5Cl)nn4)nc(N)nc32)c1C` (centres undefined) had an IC50 in data set [1] of 2400 nM. Moreover, in [2], the outcome was Active.

On to `COc1c(C)cnc(Cn2cnc3c(Cl)nc(N)nc32)c1C` [BIIB021], for which the result in data set [4] and in data set [6] was inactive. In data set [5], the Activity result is “Toxic”. The 50% inhibitory concentration (IC50) in data set [1] turned out to be 16200 nM.

`COc1c(C)cnc(Cn2cnc3c(NCCOCCOCCn4cc(COc5ccc(N(C(=O)CCl)C(C(=O)NCCc6ccccc6)c6cccs6)cc5Cl)nn4)nc(N)nc32)c1C` (centres undefined): the IC50 in data set [1] was 1000 nM. Moreover, the outcome in [2] was Active.

The compound `COc1c(C)cnc(Cn2cnc3c(NCCCCNC(=O)Cn4cc(COc5ccc(N(C(=O)CCl)C(C(=O)NCCc6ccccc6)c6cccs6)cc5Cl)nn4)nc(N)nc32)c1C` (centres undefined) registered a 50% inhibitory concentration (IC50) in [1] of 1100 nM. Also, the result in [2] was Active.

In data set [1], `Nc1ncnc2c1nc(Sc1cc3c(cc1I)OCO3)n2CCOCCOCCNC(=O)Cn1cc(COc2ccc(N(C(=O)CCl)C(C(=O)NCCc3ccccc3)c3cccs3)cc2Cl)nn1` (centres undefined) returned a half-inhibitory concentration (IC50) of 1500 nM. The result in [2] was Active.

With `COc1c(C)cnc(Cn2cnc3c(N4CCC(N5CCN(C(=O)Cn6cc(COc7ccc(N(C(=O)CCl)C(C(=O)NCCc8ccccc8)c8cccs8)cc7Cl)nn6)CC5)CC4)nc(N)nc32)c1C` (centres undefined), in data set [1], the 50% inhibitory concentration (IC50) turned out to be 1400 nM. For the same compound, the outcome in data set [2] was Active.

`COc1c(C)cnc(Cn2cnc3c(N4CCC(C5CCN(C(=O)Cn6cc(COc7ccc(N(C(=O)CCl)C(C(=O)NCCc8ccccc8)c8cccs8)cc7Cl)nn6)CC5)CC4)nc(N)nc32)c1C` (centres undefined) yielded a half-inhibitory concentration (IC50) in data set [1] of 980 nM. In data set [2], the outcome was Active.

In the case of `O=C1CCC(N2C(=O)c3cccc(NCCOCCOCCOCCn4cc(COc5ccc(N(C(=O)CCl)C(C(=O)NCCc6ccccc6)c6cccs6)cc5Cl)nn4)c3C2=O)C(=O)N1` (centres undefined), the outcome in data set [4] was Active. This compound also yielded a half-maximal inhibitory concentration (IC50) in data set [1] of 490 nM.

As for `COc1ccc(N(C(=O)CCl)C(C(=O)NCCc2ccccc2)c2cccs2)cc1Cl` (centres undefined), the result in data set [4] and in data set [9] was inactive. The “fold change (FC)” value in [7] turned out to be 3. Further, the Activity entry in data set [8] is listed as “Toxic”. For the same compound, the 50% inhibitory concentration (IC50) worked out at 760 nM in [1] and 2000 nM in data set [10].

`COc1c(C)cnc(Cn2cnc3c(NCCOCCOCCOCCOCCNC(=O)Cn4cc(COc5ccc(N(C(=O)CCl)C(C(=O)NCCc6ccccc6)c6cccs6)cc5Cl)nn4)nc(N)nc32)c1C` (centres undefined) gave a half-inhibitory concentration (IC50) in data set [1] of 15200 nM. For the same compound, in data set [2], the outcome was Active.

On to `COc1c(C)cnc(Cn2cnc3c(N4CCC(NC(=O)Cn5cc(COc6ccc(N(C(=O)CCl)C(C(=O)NCCc7ccccc7)c7cccs7)cc6Cl)nn5)CC4)nc(N)nc32)c1C` (centres undefined), for which it took 2400 nM to reach half-maximal inhibition in [1] (IC50). Further, in [2], the result was Active.

On to `Nc1ncnc2c1nc(Sc1cc3c(cc1I)OCO3)n2CCNC(=O)CCNC(=O)Cn1cc(COc2ccc(N(C(=O)CCl)C(C(=O)NCCc3ccccc3)c3cccs3)cc2Cl)nn1` (centres undefined), for which, in data set [1], the concentration for half-maximal inhibition (IC50) came out at 56100 nM. Moreover, the result in [2] was Active.

In data set [1], `COc1c(C)cnc(Cn2cnc3c(NCCC4CCN(C(=O)Cn5cc(COc6ccc(N(C(=O)CCl)C(C(=O)NCCc7ccccc7)c7cccs7)cc6Cl)nn5)CC4)nc(NC(C)=O)nc32)c1C` (centres undefined) showed an IC50 of 15500 nM. For the same compound, the outcome in [2] was Active.

The compound `Nc1ncnc2c1nc(Sc1cc3c(cc1I)OCO3)n2CCNC(=O)Cn1cc(COc2ccc(N(C(=O)CCl)C(C(=O)NCCc3ccccc3)c3cccs3)cc2Cl)nn1` (centres undefined) yielded an IC50 in [1] of 900 nM. The result in data set [2] was Active.

With `NCCC1CCN(C(=O)Cn2cc(COc3ccc(N(C(=O)CCl)C(C(=O)NCCc4ccccc4)c4cccs4)cc3Cl)nn2)CC1` (centres undefined), the half-inhibitory concentration (IC50) in data set [1] was 8300 nM. In addition, the outcome in data set [2] was Active.

In the case of `Nc1ncnc2c1nc(Sc1cc3c(cc1I)OCO3)n2CCNC(=O)CCCCCNC(=O)Cn1cc(COc2ccc(N(C(=O)CCl)C(C(=O)NCCc3ccccc3)c3cccs3)cc2Cl)nn1` (centres undefined), the IC50 in data set [1] is 41500 nM. In addition, the outcome in [2] was Active.

The compound `COc1c(C)cnc(Cn2cnc3c(N4CCN(C(=O)Cn5cc(COc6ccc(N(C(=O)CCl)C(C(=O)NCCc7ccccc7)c7cccs7)cc6Cl)nn5)CC4)nc(N)nc32)c1C` (centres undefined) showed a half-maximal inhibitory concentration (IC50) in [1] of 4100 nM. Besides, the outcome in [2] was Active.

In data set [1], `COc1c(C)cnc(Cn2cnc3c(NCCOCCOCCOCCNC(=O)Cn4cc(COc5ccc(N(C(=O)CCl)C(C(=O)NCCc6ccccc6)c6cccs6)cc5Cl)nn4)nc(N)nc32)c1C` (centres undefined) had a half-inhibitory concentration (IC50) of 3200 nM. The result in data set [2] was Active.
